These results are taken from ChEMBL document CHEMBL4339233, “Structure-activity relationship study of antitrypanosomal chalcone derivatives using multivariate analysis” (Bioorg Med Chem Lett, 2019).

The EC50 is the concentration giving half of the maximal effect. Broadly, the CC50 is the concentration at which the toxic effect on the cells reaches its halfway point.

For one data set, the system named is Trypanosoma cruzi. The data set can be described thus: Antitrypanosomal activity against Trypanosoma cruzi Y trypomastigotes infected in LLC-MK2-ATCC CCL7 cells assessed as reduction in parasite growth incubated for 24 hrs by Alamar blue dye based assay. The data set is classed as functional, organism-based.
Data set [1] is described as follows: Cytotoxicity in mouse NCTC-929 cells assessed as reduction in cell viability incubated for 48 hrs by MTT assay. The format is cell-based. The following applies: NCTC-929 (L929) cells. (In general: Tetrazolium dyes change colour on reduction, which living cells bring about.)
The nature of data set [2]: Selectivity index, ratio of CC50 for cytotoxicity in mouse NCTC-929 cells to EC50 for Antitrypanosomal activity against Trypanosoma cruzi trypomastigotes infected in LLC-MK2-ATCC CCL7 cells. The data set is classed as toxicity, cell-based. Conditions: read-out: Ratio CC50/EC50.

As for `CN(C)c1ccc(/C=C/C(=O)c2ccc([N+](=O)[O-])cc2)cc1`, the EC50 in the data set with Trypanosoma cruzi was > 100 µM. Further, the CC50 at 48 h in data set [1] is > 200 µM.
The corresponding values for `COc1ccc(C(=O)/C=C/c2ccc([N+](=O)[O-])cc2)cc1` are > 100 µM and > 200 µM.
For the compound `CN(C)c1ccc(/C=C/C(=O)c2cccc(N)c2)cc1`, the EC50 in the data set on Trypanosoma cruzi was > 100 µM. The CC50 at 48 h in data set [1] came to 101 µM.
In the case of `COc1ccc(C(=O)/C=C/c2ccc(N(C)C)cc2)cc1`, the EC50 in the data set with Trypanosoma cruzi was > 100 µM. Also, the CC50 at 48 h in data set [1] was > 200 µM.
Take `O=C(/C=C/c1ccccc1)c1ccc(-c2ccccc2)cc1`: the EC50 with Trypanosoma cruzi is > 100 µM. For the same compound, in data set [1], the CC50 at 48 h is > 200 µM.
In the case of `COc1cc(/C=C/C(=O)c2ccc(-c3ccccc3)cc2)cc(OC)c1OC`, the EC50 in the data set on Trypanosoma cruzi stood at 3.3 µM. Besides, the CC50 at 48 h in data set [1] was determined as 29 µM. Also, the selectivity ratio in data set [2] worked out at 8.9.
For `CN(C)c1ccc(/C=C/C(=O)c2ccc(-c3ccccc3)cc2)cc1`, the EC50 in the data set with Trypanosoma cruzi was > 100 µM. For the same compound, the CC50 at 48 h in data set [1] was > 200 µM.
For `CN(C)c1ccc(/C=C/C(=O)c2ccc(Cl)cc2)cc1` the same measures were > 100 µM and > 200 µM.
Turning to `O=C(/C=C/c1ccc2c(c1)OCO2)c1ccccc1`, the EC50 in the data set on Trypanosoma cruzi is 60.9 µM. In addition, the cytotoxic concentration (CC50) at 48 h in data set [1] worked out at 100 µM. Besides, the selectivity ratio in data set [2] came out at 1.6.
For the compound `O=C(/C=C/c1ccc2c(c1)OCO2)c1ccc(Cl)cc1`, the EC50 in the data set with Trypanosoma cruzi was determined as 60 µM. Also, the CC50 at 48 h in data set [1] is > 200 µM.
As for `O=C(/C=C/c1ccccc1)c1cccc(O)c1`, the EC50 in the data set on Trypanosoma cruzi amounted to 26 µM. Besides, the CC50 at 48 h in data set [1] worked out at 29.9 µM. For the same compound, in data set [2], the selectivity ratio was determined as 1.1.
As to `CN(C)c1ccc(/C=C/C(=O)c2ccccc2O)cc1`, the EC50 in the data set with Trypanosoma cruzi is > 100 µM. Moreover, in data set [1], the CC50 at 48 h was found to be 50.4 µM.
As to `O=C(/C=C/c1ccc2c(c1)OCO2)c1ccccc1O`, the EC50 with Trypanosoma cruzi was > 100 µM. Moreover, the CC50 at 48 h in data set [1] worked out at 140 µM.
Regarding `O=C(/C=C/c1ccccc1)c1ccc([N+](=O)[O-])cc1`, the EC50 in the data set with Trypanosoma cruzi was 13.9 µM. Also, the half-maximal cytotoxic concentration (CC50) at 48 h in data set [1] turned out to be 127 µM. Moreover, the selectivity ratio in data set [2] stood at 9.1.
The corresponding values for `CN(C)c1ccc(/C=C/C(=O)c2ccccc2)cc1` are 73.2 µM, 117 µM and 1.6.
For the compound `COc1cc(CCC(=O)c2ccc(-c3ccccc3)cc2)cc(OC)c1OC`, the EC50 with Trypanosoma cruzi was > 100 µM. In addition, the CC50 at 48 h in data set [1] was > 200 µM.
The corresponding values for `O=C(CCc1ccc2c(c1)OCO2)c1ccc(Cl)cc1` are > 100 µM and > 200 µM.
The corresponding values for `CN(C)c1ccc(CCC(=O)c2cccc(O)c2)cc1` are > 100 µM and > 200 µM.
Consider `C=CCOc1ccccc1C(=O)/C=C/c1ccccc1`, for which the EC50 with Trypanosoma cruzi amounted to 10.6 µM. The CC50 at 48 h in data set [1] amounted to 77.6 µM. Further, the selectivity ratio in data set [2] turned out to be 7.3.
For `C=CCOc1ccccc1C(=O)/C=C/c1ccc2c(c1)OCO2` the same measures were 18.9 µM, 82.3 µM and 4.3.
As to `O=C(CCc1ccccc1)c1ccc([N+](=O)[O-])cc1`, the EC50 in the data set on Trypanosoma cruzi is > 100 µM. Also, the CC50 at 48 h in data set [1] is > 200 µM.
For `O=C(/C=C/c1ccc2c(c1)OCO2)c1ccc([N+](=O)[O-])cc1` the same measures were > 100 µM and > 200 µM.
Regarding `O=C(/C=C/c1ccc2c(c1)OCO2)c1cccc(O)c1`, the EC50 with Trypanosoma cruzi is 26.5 µM. Also, the CC50 at 48 h in data set [1] was determined as 24.5 µM. Also, the selectivity ratio in data set [2] was determined as 1.
Turning to `CN(C)c1ccc(/C=C/C(=O)c2cccc(O)c2)cc1`, the EC50 in the data set on Trypanosoma cruzi came to 28.6 µM. Moreover, the CC50 at 48 h in data set [1] was > 200 µM. In data set [2], the selectivity ratio was > 7.
Take `COc1ccc(C(=O)/C=C/c2ccc(Cl)cc2)cc1`: the EC50 in the data set with Trypanosoma cruzi is > 100 µM. Moreover, the CC50 at 48 h in data set [1] was found to be 120 µM.
The corresponding values for `COc1ccc(C(=O)/C=C/c2ccc3c(c2)OCO3)cc1` are > 100 µM and > 200 µM.
Consider `COc1cc(/C=C/C(=O)c2ccccc2)cc(OC)c1OC`, for which the EC50 with Trypanosoma cruzi worked out at 18.4 µM. In addition, the CC50 at 48 h in data set [1] came out at 27.3 µM. Besides, the selectivity ratio in data set [2] stood at 1.5.
For the compound `Oc1ccccc1C(O)CCc1ccccc1` (racemic), the EC50 in the data set with Trypanosoma cruzi was > 100 µM. For the same compound, in data set [1], the CC50 at 48 h is > 200 µM.
The corresponding values for `O=[N+]([O-])c1ccc(C(O)CCc2ccccc2)cc1` (racemic) are > 100 µM and > 200 µM.
For `OC(CCc1ccc2c(c1)OCO2)c1ccc(Cl)cc1` (racemic), the EC50 in the data set on Trypanosoma cruzi is > 100 µM. Further, the CC50 at 48 h in data set [1] is > 200 µM.
With `COc1cc(CCC(O)c2ccc(-c3ccccc3)cc2)cc(OC)c1OC` (racemic), the EC50 with Trypanosoma cruzi was found to be 28.3 µM. For the same compound, in data set [1], the CC50 at 48 h stood at 95.6 µM. The selectivity ratio in data set [2] was determined as 3.4.
Consider `CN(C)c1ccc(CCC(O)c2cccc(O)c2)cc1` (racemic), for which the EC50 in the data set with Trypanosoma cruzi is > 100 µM. Besides, in data set [1], the CC50 at 48 h was > 200 µM.
Take `O=C(/C=C/c1ccccc1)c1ccccc1O` [2'-HYDROXYCHALCONE]: the EC50 in the data set on Trypanosoma cruzi was found to be 28.8 µM. In addition, the CC50 at 48 h in data set [1] was determined as 79.5 µM. Also, the selectivity ratio in data set [2] was found to be 2.8.
As to `COc1ccc(C(=O)/C=C/c2ccccc2)cc1` [4'-METHOXYCHALCONE], the EC50 with Trypanosoma cruzi was > 100 µM. Further, the CC50 at 48 h in data set [1] is 50.4 µM.
The corresponding values for `O=C(Cn1ccnc1[N+](=O)[O-])NCc1ccccc1` [BENZNIDAZOLE] are 16.5 µM and > 200 µM.
In the case of `O=C(/C=C/c1ccccc1)c1ccccc1` [CHALCONE], the EC50 in the data set on Trypanosoma cruzi was determined as 26.9 µM. In data set [1], the CC50 at 48 h stood at 89.3 µM. For the same compound, in data set [2], the selectivity ratio turned out to be 3.3.
